For one compound, EC50 and Emax results are on record in US20220363719A1, “Reverse Amide-Linked Melanocortin Receptor-Specific Cyclic Peptides” (Palatin Technologies, Inc., priority 2020, published 2022).

Each structure is given as a SMILES string. Where a SMILES comes first, the peptide text is derived from it. Bridges are numbered along the chain shown (N, C = ends). [ ]: non-standard residue; d: D form. The star is where a group is joined. ξ: configuration not given here. d1Nal = N[C@H](Cc1cccc2ccccc12)C(=O)O; Nle = CCCC[C@H](N)C(=O)O; ξHyp = O=C(O)C1CC(O)CN1; Bn = c1ccc(C*)cc1 Where only a bound is given, the exact number is not on record here.

Common to all, as to format: cell-based
For one experiment, the target named is T1, hMC5r (Homo sapiens, UniProt P33032).
T1 construct: Eurofins CEREP SA
T1 sequence (P33032 whole entry): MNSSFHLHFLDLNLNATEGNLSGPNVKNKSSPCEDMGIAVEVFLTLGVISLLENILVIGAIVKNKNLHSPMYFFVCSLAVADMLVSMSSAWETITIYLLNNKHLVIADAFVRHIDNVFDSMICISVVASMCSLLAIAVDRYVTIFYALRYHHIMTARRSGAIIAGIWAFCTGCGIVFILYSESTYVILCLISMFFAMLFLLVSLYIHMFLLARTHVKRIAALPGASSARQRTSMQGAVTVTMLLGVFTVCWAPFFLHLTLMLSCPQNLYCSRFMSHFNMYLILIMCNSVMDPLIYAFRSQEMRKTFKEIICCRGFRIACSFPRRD
Put plainly: cAMP agonist activity assay performed at CEREP (HTRF), MC5. The note with it: determined by CEREP, CHO-K1 cells. The procedure: (§1) Evaluation of the agonist activity of compounds at the melanocortin receptors was determined by measuring their effects on cAMP production using the HTRF detection method at CEREP (Eurofins CEREP SA, Celle-Lévescault, France). The cells were suspended in HBSS buffer (Invitrogen) complemented with 20 mM HEPES (pH 7.4) and 500 μM IBMX, then distributed in microplates and incubated in the presence of HBSS (basal control), the test compound or the reference agonist. Incubation time, temperature, cell number, reference agonist and cell line information are included in the Table 1 below. For stimulated control measurement, separate assay wells contain reference compound. Following incubation, the cells are lysed and the fluorescence acceptor (D2-labeled cAMP) and fluorescence donor (anti-cAMP antibody labeled with europium cryptate) were added. After 60 minutes at room temperature, the fluorescence transfer was measured at excitation wavelength 337 nm and emission wavelengths 620 and 665 nm using a microplate reader (Envision, Perkin Elmer). The cAMP concentration was determined by dividing the signal measured at 665 nm by that measured at 620 nm (ratio).
(§2) The results are expressed as a percent of the control response to 1 μM of the reference. The standard reference agonist is tested in each experiment at several concentrations to generate a concentration-response curve from which its EC50 value is calculated.

The target in experiment [1] is T2, hMC4r (Homo sapiens, UniProt P32245). The experiment in a line: cAMP agonist activity assay performed at CEREP (HTRF), MC4. Also on record: expressed in transfected cells. The following applies: determined by CEREP, CHO-K1 cells. The procedure:
as §1
(§3) The results are expressed as a percent of the control response to 1 μM of the reference. […]

Experiment [2] concerns the target T3, mMC1r (Mus musculus, UniProt Q01727). Put plainly: cAMP agonist activity assay performed at CEREP (HTRF), MC1. The following applies: determined by CEREP, B16-F1 cells. The procedure: as §1, §2
(In general: Time-resolved FRET reads energy transfer from a long-lived donor to a nearby acceptor.)

Experiment [3] concerns the target T4, hMC3r (Homo sapiens, UniProt P41968). The experiment in a line: cAMP agonist activity assay performed at CEREP (HTRF), MC3. Also on record: expressed in transfected cells. The following applies: determined by CEREP, CHO-K1 cells. The procedure: as §1, §3
The target of experiment [4] is T3, mMC1r. The experiment in a line: Alternative assay for agonist activity (intracellular cAMP), B16-F10 cells, native MC1r. Also on record: B16-F10 (mouse) and HBL (human) cell lines that express native MC1 r; endogenous in cells; host or cells: B16-F10 mouse melanoma cells. The note with it: not CEREP. The procedure:
(§4) Accumulation of intracellular cAMP was examined as a measure of the ability of the peptides to elicit a functional response in either HEK-293 cells that express recombinant MC3r or MC4r or B16-F10 (mouse) and HBL (human) cell lines that express native MC1 r. Confluent cells were detached from culture plates by incubation in enzyme-free cell dissociation buffer. Dispersed cells were suspended in Hank's Balanced Salt Solution containing 10 mM HEPES (pH 7.5), 1 mM MgCl2, 1 mM glutamine, 0.5% albumin and 0.3 mM 3-isobutyl-1-methyl-xanthine (IBMX), a phosphodiesterase inhibitor. The cells were dispensed into 96-well plates at a density of 0.5×10^5 cells per well and pre-incubated for 10 minutes. Cells were exposed for 15 minutes at 37° C. to peptides dissolved in DMSO (final DMSO concentration of 1%) at a concentration range of 0.05-5000 nM in a total assay volume of 200 μL. NDP-α-MSH was used as the reference agonist. cAMP levels were determined by an HTRF® cAMP cell-based assay system from Cisbio Bioassays utilizing cryptate-labeled anti-cAMP and D2-labeled cAMP, with plates read on a Perkin-Elmer Victor plate reader at […]. Data analysis was performed by nonlinear regression analysis with Graph-Pad Prism® software. The maximum efficacies of the test peptides were compared to that achieved by the reference melanocortin agonist NDP-α-MSH.

For experiment [5], the target named is T2, hMC4r. Put plainly: Alternative assay for agonist activity (intracellular cAMP), HEK-293 cells, recombinant MC4r. Also on record: expressed in transfected cells; host or cells: HEK-293. On the procedure:
as §4

Experiment [6] has as its target T4, hMC3r. Put plainly: Alternative assay for agonist activity (intracellular cAMP), HEK-293 cells, recombinant MC3r. Details: expressed in transfected cells; host or cells: HEK-293. On the procedure:
as §4

T3 sequence (Q01727 whole entry): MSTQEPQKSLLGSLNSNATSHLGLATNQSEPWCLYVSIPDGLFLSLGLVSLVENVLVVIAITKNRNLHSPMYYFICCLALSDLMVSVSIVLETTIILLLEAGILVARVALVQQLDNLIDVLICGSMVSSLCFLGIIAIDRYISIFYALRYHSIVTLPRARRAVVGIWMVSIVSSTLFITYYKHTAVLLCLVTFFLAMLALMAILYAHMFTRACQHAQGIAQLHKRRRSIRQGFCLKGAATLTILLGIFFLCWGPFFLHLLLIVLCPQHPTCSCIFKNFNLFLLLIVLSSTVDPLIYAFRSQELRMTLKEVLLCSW
T4 sequence (P41968 whole entry): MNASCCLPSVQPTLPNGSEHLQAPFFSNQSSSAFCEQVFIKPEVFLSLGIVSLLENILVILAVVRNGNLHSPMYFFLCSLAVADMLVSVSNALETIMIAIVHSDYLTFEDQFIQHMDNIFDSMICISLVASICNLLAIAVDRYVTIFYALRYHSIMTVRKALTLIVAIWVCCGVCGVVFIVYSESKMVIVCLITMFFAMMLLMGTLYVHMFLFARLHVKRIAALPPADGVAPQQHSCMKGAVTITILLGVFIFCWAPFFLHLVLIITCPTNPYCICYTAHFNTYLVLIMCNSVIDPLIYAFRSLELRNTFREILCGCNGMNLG
T2 sequence (P32245 whole entry): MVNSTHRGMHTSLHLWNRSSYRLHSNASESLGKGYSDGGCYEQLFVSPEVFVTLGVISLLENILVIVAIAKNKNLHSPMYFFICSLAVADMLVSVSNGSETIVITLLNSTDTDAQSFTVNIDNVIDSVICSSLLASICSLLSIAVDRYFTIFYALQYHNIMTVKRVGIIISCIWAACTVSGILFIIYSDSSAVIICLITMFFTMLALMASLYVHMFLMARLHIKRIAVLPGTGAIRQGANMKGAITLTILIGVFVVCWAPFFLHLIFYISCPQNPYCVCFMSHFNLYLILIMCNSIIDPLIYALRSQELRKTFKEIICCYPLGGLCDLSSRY

The term EC50 denotes the midpoint of the concentration-response curve. A word on the Emax: it is the maximal effect, on the per cent scale that the assay sets. `CCCC[C@H](NC(C)=O)C(=O)N[C@H]1CCCCNC(=O)CNC(=O)[C@H](Cc2c[nH]c3ccccc23)NC(=O)[C@H](CCCNC(=N)N)NC(=O)[C@@H](Cc2cccc3ccccc23)NC(=O)C2CC(OCc3ccccc3)CN2C1=O` (some centres unmarked) [Peptide 1] (Ac-[Nle]K[ξHyp](Bn)[d1Nal]RWG; lactam 2-C): the EC50 is 0.22 nM on hMC5r (cAMP HTRF); 0.82 nM at hMC4r [1] (cAMP HTRF); 260 nM on mMC1r [2] (cAMP HTRF); above 10000 nM at hMC3r [3] (cAMP HTRF); 3 nM at mMC1r [4] (cAMP HTRF); 0.5 nM at hMC4r [5] (not CEREP, cAMP HTRF). Also, on hMC3r [6] (not CEREP, cAMP HTRF), the EC50 is above 10000 nM. The Emax turned out to be 110% on hMC5r (control Alpha-MSH, read-out: Emax percent hMC5r* (percent of the maximal response obtained with the positive control)); 50% on hMC4r [1] (control NDP-alpha-MSH, read-out: Emax percent hMC4r* (percent of the maximal response obtained with the positive control)); 65% on mMC1r [2] (control NDP-alpha-MSH, read-out: Emax percent mMC1r* (percent of the maximal response obtained with the positive control)); 9% on hMC3r [3] (control NDP-alpha-MSH, read-out: Emax percent hMC3r* (percent of the maximal response obtained with the positive control)); 58% at mMC1r [4] (reference NDP-α-MSH, read-out: Emax percent mMC1r (percent of the maximal response obtained with the positive control)); 39% at hMC4r [5] (HEK293, not CEREP, reference NDP-α-MSH, read-out: Emax percent hMC4r (percent of the maximal response obtained with the positive control)). In addition, the Emax on hMC3r [6] (HEK293, not CEREP, reference NDP-α-MSH, read-out: Emax percent hMC3r (percent of the maximal response obtained with the positive control)) turned out to be 12%.
